{"source": "patent US20240407361A1", "about": "“ORGANOSULFUR COMPOUNDS AS PLANT BIOSTIMULANTS” (AHV International B.V., priority 2021, published 2024)", "key": {"[1]": {"tested_on": "sweet pepper (Capsicum annuum “Ritmico”)", "test": "Organosulfur compounds on sweet pepper, drip (Example 9)", "assay_type": "in vivo", "conditions": "no fruits yet, preliminary", "description": "(§1) Experimental design. The bio-stimulatory effects of organosulfur compounds was tested on lettuce and sweet pepper (Capsicum annuum “Ritmico”). The tested compounds include di-n-propyl disulfide (GAS 629-19-6), di-n-propyl thiosulfonate (i.e., PTSO, CAS 1113-13-9), di-methyl thiosulfonate (GAS 2949-92-0), and di-phenyl thiosulfonate (Gas 1212-08-4). Di-methyl thiosulfonate and di-phenyl thiosulfonate were ordered from Adrich-Sigma. PTSO was purified as described in example 1. In order to obtain a stable and homogenous emulsion, the compounds were dissolved into an emulsifier solution (table 25) to assure that the crops are supplied with the defined solution. […] As examples herein, “PTSO Composition 5.2” refers to an agricultural composition comprising 5.2% PTSO and further comprises 59% emulsifier (propylene glycol and glyceryl polyethyleneglycol ricinoleate). “PTSO composition 5.2 Yuka” in an agricultural composition comprising 5.2% PTSO and 90.2% Yuka extract. “PTSO composition 5.2 Tween” in an agricultural composition comprising 5.2% PTSO, 30.1% Tween, 30.1% DMSO and 30% water.\n(§2) The dosage of the test compounds was standardized on base of the molar dosage and the same molar dosage was administered as PTSO. Emulsions were prepared by adding the required amount of the compounds as indicated in table 25 in 100 ml volumes of 50% tween 80 and 50 ml DMSO. Hereafter, the volumes were supplemented to a final volume of 250 ml with the same mixture and incubation took place at an orbital shaker at 37° C. (30 minutes, 250 rpm)."}, "[2]": {"tested_on": "Lettuce Lactuca sativa “volare”", "test": "Organosulfur compounds on lettuce, seed drench (Example 9)", "assay_type": "in vivo", "conditions": "for Added harvest (weight) per plant compared to control (%) / Root formation (%) compared to control / Relative fresh weight/plant compared to control (%): seed drench, 1000× diluted emulsion; for Root formation (%) compared to control: control = 100; for Relative fresh weight/plant compared to control (%): control = emulsifier solution = 100; for Harvest: Fresh weight/plant: seeds drenched 10 minutes in 1000× diluted emulsion, 21 °C", "description": "as §1, §2\nBefore seeding, the seeds of lettuce were drenched into 1000× diluted emulsions as indicated in table 25 and incubated for 10 minutes. Each treatment was performed in 4-fold. In table 26 the growth settings of lettuce and sweet peppers are summarized and in table 27 a summary of the realized growth conditions and crop harvest is presented of lettuce."}}, "data": [{"smiles": "CSS(C)(=O)=O", "note": "[Di-methyl thiosulfonate, di-methyl thiosulfonate]", "values": [{"measurement": "Size increase over control (%)", "setting": "[1]", "value": 6.1, "unit": "%"}, {"measurement": "Added harvest (weight) per plant compared to control (%)", "setting": "[2]", "value": 20, "unit": "%"}, {"measurement": "Root formation (%) compared to control", "setting": "[2]", "value": 115, "unit": "%"}, {"measurement": "Relative fresh weight/plant compared to control (%)", "setting": "[2]", "value": 120, "unit": "%"}, {"measurement": "Harvest: Fresh weight/plant", "setting": "[2]", "value": 1.96}]}, {"smiles": "O=S(=O)(Sc1ccccc1)c1ccccc1", "note": "[Di-phenyl thiosulfonate, di-phenyl thiosulfonate]", "values": [{"measurement": "Size increase over control (%)", "setting": "[1]", "value": 2.8, "unit": "%"}, {"measurement": "Added harvest (weight) per plant compared to control (%)", "setting": "[2]", "value": 3, "unit": "%"}, {"measurement": "Root formation (%) compared to control", "setting": "[2]", "value": 93.9, "unit": "%"}, {"measurement": "Relative fresh weight/plant compared to control (%)", "setting": "[2]", "value": 103, "unit": "%"}, {"measurement": "Harvest: Fresh weight/plant", "setting": "[2]", "value": 1.68}]}, {"smiles": "CCCSSCCC", "note": "[Di-propyl disulfide]", "values": [{"measurement": "Size increase over control (%)", "setting": "[1]", "value": 2.8, "unit": "%"}, {"measurement": "Added harvest (weight) per plant compared to control (%)", "setting": "[2]", "value": 10, "unit": "%"}, {"measurement": "Root formation (%) compared to control", "setting": "[2]", "value": 109, "unit": "%"}, {"measurement": "Relative fresh weight/plant compared to control (%)", "setting": "[2]", "value": 110, "unit": "%"}, {"measurement": "Harvest: Fresh weight/plant", "setting": "[2]", "value": 1.80}]}, {"smiles": "CCCSS(=O)(=O)CCC", "note": "[PTSO, di-n-propyl thiosulfonate]", "values": [{"measurement": "Size increase over control (%)", "setting": "[1]", "value": 4.2, "unit": "%"}, {"measurement": "Added harvest (weight) per plant compared to control (%)", "setting": "[2]", "value": 13, "unit": "%"}, {"measurement": "Root formation (%) compared to control", "setting": "[2]", "value": 110, "unit": "%"}, {"measurement": "Relative fresh weight/plant compared to control (%)", "setting": "[2]", "value": 113, "unit": "%"}, {"measurement": "Harvest: Fresh weight/plant", "setting": "[2]", "value": 1.84}]}]}
